Like-named read-outs stand apart in the source and are kept apart here.

Holding throughout (assay type): cell-based
The subject of assay [1] is Candida albicans (C. albicans—ATCC 10231). The assay is described as follows: Synergy test, microtiter plate high resolution MIC assay, yeast in PDB medium. Further details: key to SI (synergy index): SI = Qa/QA + Qb/QB; >1 antagonism, lower SI = greater synergy; Qb (Second Component B) / Qa (First Component A): unit: ppm. The note with it: for MIC: Candida albicans. On the procedure: (§1) When the sum of Qa/QA and Qb/QB is greater than one, antagonism is indicated. […] The lower the SI, the greater the synergy shown by that particular mixture. The minimum inhibitory concentration (MIC) of a microbicide is the lowest concentration tested under a specific set of conditions that prevents the growth of added microorganisms.
(§2) Synergy tests were conducted using standard microtiter plate assays with media designed for optimal growth of the test microorganism. Minimal salt medium supplemented with 0.2% glucose and 0.1% yeast extract (M9GY medium) was used for testing bacteria; Potato Dextrose Broth (PDB medium) was used for testing yeast and mold. In this method, a wide range of combinations of microbicides and other personal care raw materials was tested by conducting high resolution MIC assays in the presence of various concentrations of BBIT or MBIT. High resolution MICs were determined by adding varying amounts of microbicide to one column of a microtitre plate and doing subsequent […] dilutions using an automated liquid handling system to obtain a series of endpoints ranging from 2 ppm to 10,000 ppm active ingredient.
(§3) The bacteria were used at a concentration of about 5 ×10^6 bacteria per mL and the yeast and mold at 5×10^5 fungi per mL. These microorganisms are representative of natural contaminants in many consumer and industrial applications. […] (yeast and mold) or 30° C. (bacteria).
(§4) In each test, First Component (A) was BBIT and the Second Component (B) was the other commercial microbicide.
(§5) In each test, First Component (A) was MBIT and the Second Component (B) was the other commercial microbicide.

Assay [2] concerns Escherichia coli (E. coli—ATCC #8739). Kind of assay: Synergy test, microtiter plate high resolution MIC assay, bacterium in M9GY medium. More on the design: key to SI (synergy index): SI = Qa/QA + Qb/QB; >1 antagonism, lower SI = greater synergy; Qa (First Component A) / Qb (Second Component B): unit: ppm. As to conditions: for MIC: Escherichia coli. Here is the method:
as §1, §2, §3, §4, §5

The test system of assay [3] is Aspergillus niger (A. niger—ATCC 16404). Kind of assay: Synergy test, microtiter plate high resolution MIC assay, mold in PDB medium. More on the design: key to SI (synergy index): SI = Qa/QA + Qb/QB; >1 antagonism, lower SI = greater synergy; Qb (Second Component B) / Qa (First Component A): unit: ppm. As to conditions: for MIC: Aspergillus niger. On the procedure: as §1, §2, §3, §4, §5

Where [4] appears, read: A=MBIT, B=dithio-2,2′-bis(N-methylbenzamide) (DTBMA), C. albicans 10231 - PDB, 24 hours.
Setting [5] is: A=MBIT, B=dithio-2,2′-bis(N-methylbenzamide) (DTBMA), E. coli 8739 - M9GY, 24 hours.
[6] abbreviates: A=MBIT, B=dithio-2,2′-bis(N-methylbenzamide) (DTBMA), A. niger 16404 - PDB, 3 days.
[7] abbreviates: A=MBIT, B=Caprylyl glycol, C. albicans 10231 - PDB, 24 hours.
Where [8] appears, read: A=MBIT, B=Caprylyl glycol, E. coli 8739 - M9GY, 24 hours.
The mark [9] stands for this setting: A=MBIT, B=Caprylyl glycol, A. niger 16404 - PDB, 4 days.
The mark [10] stands for this setting: ATCC8739, E. coli 8739, M9GY, 24 hours, 30° C., read-out: MIC of the component acting alone (QA / QB).
The mark [11] stands for this setting: A=MBIT, B=DMDM Hydantoin (DMDMH), C. albicans 10231 - PDB, 24 hours.
Setting [12] is: A=MBIT, B=DMDM Hydantoin (DMDMH), E. coli 8739 - M9GY, 24 hours.
[13] abbreviates: A=MBIT, B=DMDM Hydantoin (DMDMH), A. niger 16404 - PDB, 3 days.
The mark [14] stands for this setting: A=MBIT, B=Benzyl alcohol, C. albicans 10231 - PDB, 48 hours.
The mark [15] stands for this setting: A=MBIT, B=Benzyl alcohol, E. coli 8739 - M9GY, 24 hours.
The mark [16] stands for this setting: A=MBIT, B=Benzyl alcohol, A. niger 16404 - PDB, 4 days.

Turning to `CNC(=O)c1ccccc1SSc1ccccc1C(=O)NC` [DTBMA, dithio-2,2′-bis(N-methylbenzamide)], the “Qb (Second Component B)” value in assay [1] (setting [4]) was found to be 2000; in assay [2] (setting [5]), 80; in assay [3] (setting [6]), 800. The “SI (synergy index)” value in assay [1] (setting [4]), in assay [2] (setting [5]) and in assay [3] (setting [6]) was 1.00 in each case. Also, the SI in assay [1] (C. albicans 10231 - PDB, 24 hours, BBIT + DTBMA) stood at 1.00; in assay [2] (E. coli 8739 - M9GY, 48 hours, BBIT + DTBMA), 1.00; in assay [3] (A. niger 16404 - PDB, 7 days, BBIT + DTBMA), 1.00. The “Qb (Second Component B = DTBMA)” value is 2000 in assay [1] (C. albicans 10231 - PDB, 24 hours, DTBMA alone (Qa 0) or in mixture with BBIT); 60 in assay [2] (E. coli 8739 - M9GY, 48 hours, DTBMA alone (Qa 0) or in mixture with BBIT); 1000 in assay [3] (A. niger 16404 - PDB, 7 days, DTBMA alone (Qa 0) or in mixture with BBIT).

In the case of `O=C([O-])CC(O)(CC(=O)[O-])C(=O)[O-].[Na+].[Na+].[Na+]` [Sodium citrate], the “Qb (Second Component B)” value in assay [1] turned out to be 10000; in assay [2], 20000; in assay [3], 10000. Also, the “Qb (concentration of second component producing the end point, MIC)” value came out at 10000 ppm in assay [1], 20000 ppm in assay [2] and 10000 ppm in assay [3].

Take `CCCCCCC(O)CO` (stereo not drawn) [Caprylyl glycol]: the “Qb (Second Component B)” value is recorded as 4000 in assay [1] (setting [7]), 2000 in assay [2] (setting [8]) and 1000 in assay [3] (setting [9]). In addition, the “SI (synergy index)” value in assay [1] (setting [7]), in assay [2] (setting [8]) and in assay [3] (setting [9]) was 1.00 throughout. For the same compound, the “MIC of the component acting alone (QA / QB)” value in assay [1] (C. albicans 10231, PDB, 24 hours, 25° C.) was 3000 ppm; in assay [2] (E. coli 8739, M9GY, 24 hours, 30° C.), 2000 ppm; in assay [3] (A. niger 16404, PDB, 7 days, 25° C.), 3000 ppm.

As to `CCOC(=O)c1ccc(O)cc1` [Ethylparaben], the “SI (synergy index)” value in assay [1] (C. albicans 10231, PDB, 24 hours) came out at 1.00; in assay [2] (E. coli 8739, M9GY, 24 hours) it was 1.00; in assay [3] (A. niger 16404, PDB, 7 days), 1.00. In addition, the MIC in assay [1] (ATCC10231, C. albicans 10231, PDB, 24 hours, 25° C., read-out: MIC of the component acting alone (QA / QB)) stood at 800 µg/mL; in assay [1] (ATCC10231, C. albicans 10231, PDB, 24 hours, alone where Qa = 0, otherwise in the mixture, read-out: Qb (concentration of second component producing the end point, MIC)), 2000 µg/mL; in assay [2] (setting [10]), 2000 µg/mL; in assay [2] (ATCC8739, E. coli 8739, M9GY, 24 hours, alone where Qa = 0, otherwise in the mixture, read-out: Qb (concentration of second component producing the end point, MIC)), 2000 µg/mL; in assay [3] (ATCC16404, 168 h, A. niger 16404, PDB, 7 days, 25° C., read-out: MIC of the component acting alone (QA / QB)) it was 800 µg/mL; in assay [3] (ATCC16404, 168 h, A. niger 16404, PDB, 7 days, alone where Qa = 0, otherwise in the mixture, read-out: Qb (concentration of second component producing the end point, MIC)) it was 800 µg/mL.

For `CC1(C)C(=O)N(CO)C(=O)N1CO` [DMDM Hydantoin, 1,3-dimethylol-5,5-dimethylhydantoin], the “Qb (Second Component B)” value in assay [1] (setting [11]) is listed as 3000; in assay [2] (setting [12]), 50; in assay [3] (setting [13]) it was 1000. In addition, the “SI (synergy index)” value in assay [1] (setting [11]), in assay [2] (setting [12]) and in assay [3] (setting [13]) was 1.00 in each case. Also, the SI in assay [1] (C. albicans 10231 - PDB, 24 hours, BBIT + DMDMH) is recorded as 1.00; in assay [2] (E. coli 8739 - M9GY, 72 hours, BBIT + DMDMH), 1.00; in assay [3] (A. niger 16404 - PDB, 7 days, BBIT + DMDMH), 1.00. Moreover, the “Qb (Second Component B = DMDMH)” value is 3000 in assay [1] (C. albicans 10231 - PDB, 24 hours, DMDMH alone (Qa 0) or in mixture with BBIT); 200 in assay [2] (E. coli 8739 - M9GY, 72 hours, DMDMH alone (Qa 0) or in mixture with BBIT); 1000 in assay [3] (A. niger 16404 - PDB, 7 days, DMDMH alone (Qa 0) or in mixture with BBIT).

`OCc1ccccc1` [Benzyl alcohol]: the figures for the “Qb (Second Component B)” value in assay [1] (setting [14]), in assay [2] (setting [15]) and in assay [3] (setting [16]) were 4000, 5000 and 6000, respectively. Further, the “SI (synergy index)” value in assay [1] (setting [14]), in assay [2] (setting [15]) and in assay [3] (setting [16]) was 1.00 throughout. For the same compound, the MIC turned out to be 3000 µg/mL in assay [1] (ATCC10231, C. albicans 10231, PDB, 48 hours, 25° C., read-out: MIC of the component acting alone (QA / QB)); 2000 µg/mL in assay [2] (setting [10]); 5000 µg/mL in assay [3] (ATCC16404, 72 h, A. niger 16404, PDB, 3 days, 25° C., read-out: MIC of the component acting alone (QA / QB)).

Consider `C/C=C/C=C/C(=O)[O-].[K+]` [Potassium sorbate], for which the SI in assay [1], in assay [2] and in assay [3] was 1.00 each time. The “SI (synergy index)” value in assay [1], in assay [2] and in assay [3] was 1.00 each time. In addition, the MIC turned out to be 400 µg/mL in assay [1] (ATCC10231, 24 h, read-out: Qb (concentration of second component producing the end point, MIC)); 20000 µg/mL in assay [2] (ATCC8739, 48 h, read-out: Qb (concentration of second component producing the end point, MIC)); 10000 µg/mL in assay [3] (ATCC16404, 96 h, read-out: Qb (concentration of second component producing the end point, MIC)).

The values are drawn from US8741940B2, “Microbicidal composition” (Rohm and Haas Company, priority 2005, dated 2014).
